Measured values: PubChem BioAssay (NCI)
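Five compound concentrations were applied to cells in 96-well plates for 48 hours; endpoints were derived by simple linear interpolation of the resulting dose-response curve. At the GI50, growth is halved. TGI: total growth inhibition.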 Where a SMILES comes first, the peptide text is derived from it.

Legend:
Assay in all cases: NCI anticancer screen, dose series, 48 h
[1] = system: A549 NSCLC
[2] = system: CAKI-1 renal
[3] = system: COLO 205 colon
[4] = system: EKVX NSCLC
[5] = system: HCT-15 colon
[6] = system: OVCAR-3 ovarian
[7] = system: SF-295 CNS
[8] = system: SF-539 CNS
[9] = system: SK-MEL-2 melanoma
[10] = system: U251 CNS

SMILES	GI50 [1] [µM]	TGI [1] [µM]	GI50 [2] [µM]	TGI [2] [µM]	GI50 [3] [µM]	TGI [3] [µM]	GI50 [4] [µM]	TGI [4] [µM]	GI50 [5] [µM]	TGI [5] [µM]	GI50 [6] [µM]	TGI [6] [µM]	GI50 [7] [µM]	TGI [7] [µM]	GI50 [8] [µM]	TGI [8] [µM]	GI50 [9] [µM]	TGI [9] [µM]	GI50 [10] [µM]	TGI [10] [µM]
O=C(N/N=C\c1ccc(N(CCCl)CCCl)cc1)c1cccnc1	37.5	> 100	8.53	> 100	> 100	> 100	> 100	> 100	37.1	> 100	30.5	> 100	6.31	73.2	29.3	> 100	> 100	> 100	> 100	> 100
C/C=C(\C)C(=O)OC1C2C(C)=CC(=O)C(O)C2(C)C2C3(O)OCC24C1OC(=O)C(OC(C)=O)C4C(C)C3O (stereo not drawn)		0.648		0.674		0.229		0.103		0.328		0.0496		0.0959				0.073		0.0407
CCOC(=O)c1ccc(Nc2nc3ccccc3n3cccc23)cc1		> 100		> 100		> 100		> 100		> 100		> 100		> 100		> 100		> 100		98
CC(C)(C)c1ccc(NS(=O)(=O)c2ccc(N)cc2)cc1		> 100		99.4		29.6		71.8		> 100		12.9		14		41.7		36.5		39.2
COc1cc2c(c(OC)c1OC)-c1ccc(OC)c(=O)cc1C(NC(=O)CCCCCNc1ccc(N=[N+]=[N-])cc1[N+](=O)[O-])CC2 (stereo not drawn)		5.8		18.4		< 0.01		0.644		0.245		< 0.0152		12.5		< 0.01		< 0.01		11.1
CC(C)(C)OC(=O)NCC(c1c[nH]c2cc(Br)ccc12)c1c[nH]c2cc(Br)ccc12		44.7		91.5		34.7		32.8		30.2		29.1		36.2		38		34		31
N#C[S-].[Ce+3].c1ccc(-c2ccccn2)nc1.c1ccc(-c2ccccn2)nc1.c1ccc(-c2ccccn2)nc1	24.8	> 100	10.8	91.3	33	> 100	8.61	> 100	5.18	> 100	43.1	> 100	4.72	49	27.3	> 100	25.4	63.1	13.3	> 100
COC(Cc1cc(C(O)(c2ccc(C(C)(C)C)cc2)c2cc(CC(OC)(c3cc(C(OC)(c4ccc(C(C)(C)C)cc4)c4ccc(C(C)(C)C)cc4)c(C)cc3C)c3cc(C(OC)(c4ccc(C(C)(C)C)cc4)c4ccc(C(C)(C)C)cc4)c(C)cc3C)c(C)cc2C)c(C)cc1C)(c1cc(C(OC)(c2ccc(C(C)(C)C)cc2)c2ccc(C(C)(C)C)cc2)c(C)cc1C)c1cc(C(OC)(c2ccc(C(C)(C)C)cc2)c2ccc(C(C)(C)C)cc2)c(C)cc1C		> 75		> 75		> 75		> 75		> 75		> 75		> 75		> 75		> 75		> 75
O=C1NCN(c2ccccc2)C12CCN(CCCN1CCN(CCOC(c3ccccc3)c3ccccc3)CC1)CC2		7.82		7.43		2.26		7.24		5.19		6.93		6.41		2.48		6.75		7.45
CC(=O)NC(CS)C(=O)NC(CO)C(=O)NC(CO)C(=O)NC(Cc1c[nH]c2ccccc12)C(=O)N1CCCC1C(=O)NC(CO)C(=O)NC(Cc1c[nH]c2ccccc12)C(=O)NC(Cc1c[nH]cn1)C(=O)NC(CO)C(=O)NC(Cc1c[nH]c2ccccc12)C(=O)NCC(=O)NCC(=O)NC(C)C(=O)NC(CCC(N)=O)C(=O)NC(CCCCN)C(=O)NC(C)C(=O)NC(CCCNC(=N)N)C(=O)NC(CCCCN)C(N)=O (stereo not drawn) (Ac-CSSWPSWHSWGGAQKARK-NH2; configuration not given here)		> 50		33.6		28.2		> 50		> 50		> 50		> 50		> 50		> 50		27.7
COc1nc2ccc(Cl)c(C(O)c3ccccc3)c2nc1OC (stereo not drawn)		78.6		45.3		32.5		> 100		50.1		69.6		44.8		32.8		45		88
COc1ccccc1N1C(=O)CSC1c1cccc(Oc2ccccc2)c1 (stereo not drawn)		47.4		74.5		34.9		43.4		37.4		45.1		41.1		31.6		29.9		30.7
COC1=CC(c2ccc[nH]2)=N/C1=C\c1[nH]c(C)c(CC(=O)NCc2ccccc2)c1C	1.66	3.15	1.48	2.85	1.38	2.98	1.06	2.47	1.06	2.45	1.46	2.91	1.47	2.89	1.89	3.51	1.71	3.29	1.23	2.49
Brc1ccc2nc(-c3cccs3)nc(N3CCN(c4ccccc4)CC3)c2c1		> 100		> 100		> 100		> 100		> 100		> 100		> 100		> 100		> 100		> 100
CCOC(=O)NC(=O)c1cn(CCN(CCO)C(=O)NCCCCCCNC(=O)N(CCO)CCn2cc(C(=O)NC(=O)OCC)c(=O)[nH]c2=O)c(=O)[nH]c1=O		> 100		> 100		> 100		> 100		> 100		> 100		> 100		> 100		> 100		> 100
NS(=O)(=O)c1ccc(N=Nc2ccc(O)cc2)cc1		> 100		> 100		> 100		> 100		> 100		> 100		> 100		> 100		> 100		> 100
CC1=C/C(=N\NS(=O)(=O)c2ccc([N+](=O)[O-])cc2)CC(C)(C)C1		> 100		> 100		> 100		> 100		> 100		> 100		> 100		> 100		> 100		> 100
N#CC1(C#N)C(=O)c2ccncc2C1=O		> 100		> 100		> 100		> 100		> 100		> 100		> 100		> 100		> 100		> 100
COc1cc(-c2n/c(=C\c3c(O)[nH]c4ccccc34)cc3c2=Nc2ccccc2-3)ccc1F	7.06	23.5	38.5	> 100	10.9	> 100	20.9	> 100	17.2	> 100	4.08	14.5	24.4	> 100	11.7	33.2	21.7	62.2	2.05	4.19
CN(CCO)CCC1COc2ccccc2O1 (stereo not drawn)		> 10		> 10		> 10		> 10		> 10		> 10		> 10		> 10		> 10		> 10
O=C(CSc1nc2ccc(I)cc2c(=O)n1Cc1ccccc1)NNC(=S)Nc1ccccc1		> 100		> 100		> 100		6.14		> 100		> 100		> 100				> 100		> 100
COc1c(O)cc2c(c1O)C(=O)C(Cc1ccc(O)cc1)CO2 (stereo not drawn)		> 100		> 100		> 100		> 100		> 100		> 100		> 100		> 100		> 100		> 100
O=C([O-])c1ccccc1Nc1ccccc1C(=O)[O-].[OH3+].[Zn+2]		> 100		8.45		> 75.3		65.8		> 100		32.9		32.2		> 82.9		40.4		33
